In patent publication US12042478B2, “(R)-2-[(2H-1,3-benzodioxol-5-yl)methyl]pyrrolidine and processes for preparation, compositions and uses thereof” (Pharmala Biotech Inc., priority 2022, dated 2024):

Key:
Type in all cases: in vivo, mouse
C57 and BTBR mice [1] = assay: Social preference procedure: sociability test; settings: 1 mg/kg IP
Description: All drugs were dissolved in physiological 0.9% saline and administered at a constant volume of 1 ml/100 g body weight. Because all drugs utilized in these studies were synthesized as hydrochloride (HCl) salts, they were weighed as salts prior to the preparation of all solutions. All drugs at all concentrations are readily dissolved in an aqueous solution at normal pH. Injections of all drugs were administered intraperitoneally (IP) to mimic pharmacokinetic parameters typical of oral administration, without the behaviour-impairing effects of gavage stress.
This assay was conducted in adult male C57 and BTBR mice (n=6 per group) in a dedicated conditioning room where ambient light, sound, and human contact were tightly controlled.
Social preference chambers consisted of two polycarbonate boxes (13.5 cm wide×22.5 cm tall×31.0 cm deep), floored with rough-textured black ABS plastic, and connected to one another by a 1.25″ PVC T-junction. An infrared photobeam emitter/detector array was mounted at each intersection of the T-junction and each preference compartment, and as a mouse traversed the apparatus, it would break the photobeam upon entry to or exit from each preference compartment. Beam breaks started or stopped a counter on an interfaced computer, allowing automated collection of time spent in each compartment. At the end of each test, data were reported as time (in seconds) spent in each compartment, the number of entries into each compartment, and the average time spent in each compartment following an entry. Social preference tests were conducted in an iterative manner, with each test subject completing four distinct phases as described below. Between testing sessions, chambers were sanitized by wiping the insides with a disinfectant product provided by the UAMS Department of Laboratory Animal Medicine. At the end of the week (upon completion of all phases of the procedure), each apparatus was disassembled and all parts were sanitized. No food or water were available during social preference sessions, but were available in the home cage immediately afterwards.
A single sociability session occurred the day after the novelty preference test, where one compartment contained a wire mesh cup with a dummy mouse inside while the other compartment contained a male NIH Swiss stranger mouse inside the previously empty cup (see FIG. 4). […] The position of the dummy mouse (left or right compartment) remained the same for each subject as during the novelty test the day before, thereby counterbalancing the position of the stranger mouse across subjects. NIH Swiss stranger mice were similar in mass and appearance to the dummy PVC mice, and were housed separately from the experimental subjects (C57 and BTBR mice) in the colony facility. The first time the experimental subjects ever encountered the stranger mice was when they entered the compartment where they were contained. During this session, mice were weighed, administered the same injection as the day before, and returned to their home cage for a 30 min pretreatment period. Mice were then introduced into the T-junction and allowed to explore both preference compartments for 15 minutes. Sociability tests always occurred on Wednesdays or Thursdays to prevent any weekend testing.

C57 and BTBR mice [2] = assay: Radiotelemetry of core temperature; settings: for core body temperature change: 5.6 mg/kg IP; for effect on core temperature: 10 mg/kg; for core temperature response, comparison of strains: C57 vs BTBR mice
Description: (§1) The radiotelemetry assay was conducted in adult male C57 and BTBR mice (n=6 per group) in a dedicated testing room where ambient light, sound, and human contact were tightly controlled.
(§2) Prior to surgical implantation of radiotelemetry probes, mice received 3 mg/kg meloxicam (IP), and anesthesia was induced with 4% inhaled isoflurane and maintained with 1-3% isoflurane (as needed) throughout the procedure at a flow rate of 1.5 litres/minute. The abdominal area of each animal was treated with depilatory cream, then sanitized with 3 alternating scrubs with iodine and alcohol. A rostral-caudal cut approximately 1.5 cm in length was made with sterile skin scissors, providing access to the intraperitoneal cavity. A cylindrical glass-encapsulated radiotelemetry probe (model ER-4000 E-Mitter, Mini Mitter, Bend, OR, USA) was then inserted. These probes measure 15.5 mm×6.5 mm and weigh approximately 1 gram. Incisions were closed (skin layer and muscle layer separately) using reverse cutting 5-0 Vicryl absorbable sutures for the muscle layer and 5-0 nylon suture material for the skin layer. Surgeries were carried out at least 7 days before initiation of experimental conditions, allowing time for incisions to heal and for animals to recover normal body weights. Following surgery, all implanted mice were individually housed in Plexiglas cages within the telemetry room for the duration of all experiments. Implanted transmitters produce activity- and temperature-modulated signals which are sent to a receiver (model ER-4000 Receiver, Mini Mitter Co., Inc.) underneath each cage. Following use, telemetry probes were removed from carcasses, wiped with alcohol swabs, and stored in the disinfectant solution until re-use.
At least 7 days after surgical implantation of radiotelemetry probes, mice in their individual home cages were placed atop a telemetry energizer/receiver, which powers probes and transmits their data to an interfaced computer. Upon initiation of an experimental session, the computer collects two data updates from the probes at 5 min intervals: core temperature (in ° C.) on one channel, and locomotor counts (in arbitrary units, depending on the relative position of the probe atop the receiver) on the other. After at least 60 minutes of baseline data collection, mice were removed from their cages, injected with saline or a given dose of a specific drug, then returned to the home cage 24 hours of data collection.
Food and water were always freely available in the home cage. Mice were injected with ascending doses of a given drug, with at least 48 hours separating doses. Because there are few studies of drug effects in BTBR mice, the first drug dose tested occasionally elicited unexpectedly large locomotor effects in these animals. In these cases, smaller drug doses were tested next, after a washout period of at least one full day.

C57 and BTBR mice [3] = assay: Radiotelemetry of home cage locomotor activity; settings: for locomotor stimulant effects: IP, C57 and BTBR mice
Description: as §1, §2
At least 7 days after surgical implantation of radiotelemetry probes, mice in their individual home cages were placed atop a telemetry energizer/receiver, which powers probes and transmits their data to an interfaced computer. […]

Row | SMILES | sociability (time spent with stranger mouse) (C57 and BTBR mice [1]; BTBR mice) | sociability (time spent with stranger mouse) (C57 and BTBR mice [1]; C57 mice) | core body temperature change (C57 and BTBR mice [2]; either mouse strain) | effect on core temperature (C57 and BTBR mice [2]; C57 and BTBR mice) | core temperature response, comparison of strains (C57 and BTBR mice [2]; IP) | rise in core body temperature (C57 and BTBR mice [2]; IP, any of the doses tested, C57 and BTBR mice) | dose at which hypothermic effects are noted (C57 and BTBR mice [2]; IP, both strains) [mg/kg] | hypothermic effects after injection (C57 and BTBR mice [2]; IP, both strains, greater in C57 at 10, 18, 30 and 56 mg/kg) | locomotor effect (C57 and BTBR mice [3]; 56 mg/kg i.p., BTBR mice, significantly different from saline) | locomotor stimulant effects (C57 and BTBR mice [3]; doses as high as 30 mg/kg) | core body temperature change (C57 and BTBR mice [2]; C57 mice) | locomotor stimulant effects (C57 and BTBR mice [3]; any dose tested)
1 | c1cc2c(cc1C[C@H]1CCCN1)OCO2 [(R)-I, (R)-2-[(2H-1,3-benzodioxol-5-yl)methyl]pyrrolidine] | minor increase in the sociability response | no impact | did not elicit a rise or drop in core body temperature | hypothermic effect | more acute response in C57 mice | did not result in a rise in core body temperature | ≥ 10 | dose-dependent hypothermic effects | locomotor effect stronger than C57 mice at the same dose | did not have significant locomotor stimulant effects | – | –
2 | c1cc2c(cc1C[C@@H]1CCCN1)OCO2 [(S)-I, (S)-2-[(2H-1,3-benzodioxol-5-yl)methyl]pyrrolidine] | strong response in sociability | slight increase in time spent with the stranger mouse | – | hypothermic effect | more acute response in C57 mice | – | – | – | – | – | significant drop in temperature | neither strain exhibited locomotor stimulant effects
